Entries after “also recorded” stand apart in the source; their conditions may differ.
Experiments:
[1] = system: CHOldlD/MUC1F-clone2 cells; test: Cell surface expression of MUC1 by immunocytology; assay type: cell-based, Chinese Hamster; settings: 1 mM; cells grown in GalNAc; FIG. 13
Description: We therefore investigated the effect of treatment with GalNAcα-benzyl of CHOldlD/MUC1F-clone2 cells grown in the presence of GalNAc. CHOldlD/MUC1F-clone2 cells were seeded in 6 well plates at a density of 0.2×10^6 per well and were grown for 6 hours in Hams F12 medium with serum until approximately 30% subconfluent. […] After 18 hours, the medium was replaced with fresh Optimem containing the sugars and benzyl derivatives as above and grown for 12-48 hours. Initially we analyzed surface expression of MUC1 by immunocytology. Cells were washed once in PBS-CMF (phosphate buffered saline Calcium and Magnesium free) after carefully removing the medium from the wells and subsequently fixed in 2 ml 3% paraformaldehyde at 25° C. for 20 min followed by three washes with PBS-CMF 3 times. Free aldehyde groups were quenched by incubating in 2 mL 50 mM Ammonium Chloride in PBS-CMF for 10 min, followed by three washes with PBS-CMF and three washes with 5 min incubations each with PBS-CMF containing 0.2% Fish Skin Gelatin (Sigma). Immunostaining of cells was performed by incubation with monoclonal antibodies for 40 min at 25° C., followed by three washes with PBS-CMF and three washes of 5 min each with PBS-CMF containing 0.2% Fish Skin Gelatin. […]

[2] = system: CHOldlD/MUC1F-clone2 cells; test: MUC1 expression in cell lysates, immunoprecipitation and SDS-PAGE western blot; assay type: cell-based, Chinese Hamster; settings: 2 mM
Description: We next analysed the expression of MUC1 produced by CHOldlD/MUC1F-clone2 cells by SDS-PAGE western analysis. […] Cells were further treated with 2 mM GalNAcα-benzyl, GlcNAcα-benzyl or no inhibitor. Cells were washed and lysed at 24 or 48 hours and the lysates subjected to immunoprecipitation with monoclonal antibody HMFG2, which broadly recognize MUC1 glycoforms. Immunoprecipitates were analysed by SDS-PAGE and western blot using HMFG2 antibody to detect MUC1 expression. […] In striking contrast, treatment with GalNAcα-benzyl had significant effect after 48 hours. […] This indicates some heterogeneity in glycosylation.
As shown in Examples 8 and 9, polypeptide GalNAc-transferases contain lectin domains with binding properties for GalNAc-peptides including GalNAc-MUC1 peptides. […] GalNAcβ-benzyl, the β-anomeric configuration of GalNAc-benzyl (there is a β linkage between the N-acetylgalactosamine and the benzyl ring), was custom synthesized by Alberta Research Council (Canada), and its structure was confirmed by mass spectrometry and ^1H-NMR. […] Cells were then treated with 2 mM GalNAcα-benzyl, GalNAcβ-benzyl, or GlcNAcα-benzyl as control (GlcNAcα-benzyl was shown in Example 10 to have no effect). Cells were washed and lysed as described above after 36 hours and the lysates subjected to immunoprecipitation with anti-MUC1 monoclonal antibodies HMFG2 or 5E5. […] FIG. 17 illustrates the same experiments as in FIG. 16 except that the detection antibody is 5E5 and only Tn and STn MUC1 glycoforms are visualised.

[3] = target: Helix Pomatia lectin (HPA) (Helix pomatia, UniProt Q2F1K8); test: Direct binding ELISA, competitive inhibition, Helix Pomatia lectin control; settings: read-out: Concentration required for 50% inhibition (IC50), HPA; control plant lectin
From the text: Glycopeptides were purified by C-18 reverse phase HPLC. Peptides were custom synthesized by Neosystems (Strasbourg). Biotinylated Helix Pomatia lectin (HPA) was from KemEnTec (Denmark). Anti-MUC1 HMFG2 monoclonal antibody was a generous gift from Joyce Taylor-Papadimitriou. Anti-MUC1 SE5 monoclonal antibody was developed by immunizing Balb/c mice with 60-mer MUC1 tandem repeat peptide glycosylated with 5 moles GalNAc per repeat. Monoclonal antibodies to the lectin domains of human GalNAc-T2 and -T4 were developed as previously described^8, 63.
Direct binding ELISA assay was developed as follows: Polystyrene microtiter plates (Maxisorb, Nunc, Denmark) were coated with peptides or enzymatically glycosylated glycopeptides in PBS overnight at 4° C. Plates were washed and blocked with 0.1% Tween20 and 0.2% BSA in PBS for 1 h at room temperature, followed by incubation with biotinylated proteins in PBS with 0.05% Tween20 for 2 h at room temperature. After four washes with PBS, plates were incubated with 1:2,000 dilution streptavidin-HRP (Sigma) in PBS for 30 min at room temperature and washed four times with PBS. Development was performed with 0.5 mg/ml o-phenylenediamine and 0.02% H2O2 at room temperature for 15 min, and reaction stopped by adding 100 μl/well of 0.5 N H2SO4. Competitive inhibition assays were done at end-point titers of GalNAc-transferase proteins with one hour preincubations with inhibitor.
Inhibition experiments were used to further define the binding specificity of GalNAc-T2 and -T4 secreted soluble enzymes as well as lectin domains compared to Helix Pomatia lectin (Table VII).

[4] = 48 hours, IP HMFG2, blot HMFG2, grown in GalNAc or Gal and GalNAc

Row | SMILES | Cell surface expression of MUC1 [1] | MUC1 expression ([2]; 24 hours, IP HMFG2, blot HMFG2) | MUC1 expression ([2]; 36 hours, blot 5E5, cells grown in GalNAc) | MUC1 expression [2, 4] | SDS-PAGE migration of MUC1 (O-glycosylation) ([2]; 48 hours, cells grown in Gal and GalNAc, blot HMFG2) | IC50 [3] [mM]
1 | CC(=O)N[C@H]1[C@@H](OCc2ccccc2)O[C@H](CO)[C@H](O)[C@@H]1O [GalNAcα-benzyl] | strong inhibition | no significant effect | strong inhibition | significant reduction in MUC1 expression | significant shift in migration | 0.5
2 | CC(=O)N[C@H]1[C@@H](OCc2ccccc2)O[C@H](CO)[C@@H](O)[C@@H]1O [GlcNAcα-benzyl] | no inhibition |  |  | produced the same glycoforms at similar intensity as cells without treatment; also recorded: no effect |  | 2

From patent US7338932B2, “Methods of modulating functions of polypeptide GalNAc-transferases and of screening test substances to find agents herefor, pharmaceutical compositions comprising such agents and the use of such agents for preparing medicaments” (Glycozym APS, priority 2000, dated 2008)
